Data: patent publication US9364496B2 (ONCOGENEX TECHNOLOGIES INC., priority 2013, dated 2016)
Values joined by “and” are separate entries in the source; they are usually repeats but may differ in a detail not shown here. Equal values may be shown once. “Also recorded” adds a separate entry of the source. Read-outs that look alike come from different tables or passages of the source.

Experiments:
[1] = cited from earlier work
[2] = Randomized Phase 2 Study OGX-011-03, custirsen plus docetaxel vs docetaxel; conditions: per arm
[3] = test system: RPMI 8226 (human myeloma) xenograft; experiment: In vivo activity of custirsen with Velcade, RPMI 8226 xenograft (Example 14); conditions: for efficacy (tumor growth), in words: Velcade 0.5 mg/kg iv; for Day 27 Δ volume / Day 34 Δ volume / Day 41 Δ volume / Day 45 Δ volume: vs Day 20
Protocol: The cells were implanted subcutaneously into female SCID mice with 7×10^6 cells inoculum.
Tumors and body weights were measured weekly until termination of the study on day 71. Response to treatment was evaluated for tumor growth inhibition (TGI) and tumor growth delay (TGD).
70 CB.17 SCID female mice, 4-6 weeks old, 16-20 grams, obtained from Harlan animal breeding center.
Sample from the cell suspension was taken for counting (0.3 ml in duplicates for CEDEX) before spun down. Cell viability was 85.6% and live cell concentration was 167×10^5 cells/ml. The pellet was resuspended in HBSS to a final volume of 8 ml.
Tumors were implanted subcutaneously with RPMI-8226 cells into the right flank of the mouse on Day 0. Each animal received a s.c. injection 7×10^6 cells in 0.1 ml suspension. On day 20, mice were sorted by the optimal tumor volume ([…]) and were allocated into 5 groups of 10 mice. Mice were individually tagged and their tumor volume and body weight were monitored weekly during the study. Tumor size was measured by caliper and calculated using the formula: […]
The treatment started on […] (0.2 ml per 20 grams v/w) and continued till day 52, after which the remaining mice were left for observation until day 71.

[4] = Velcade 0.5 mg/kg iv biwk, Day 48, individual mice
[5] = Velcade 0.5 mg/kg iv biwk, Day 51, group mean
[6] = Velcade 0.5 mg/kg iv biwk, Day 51, individual mice
[7] = Velcade 0.5 mg/kg iv biwk, day 51
[8] = Velcade 0.5 mg/kg iv biwk, earlier day (day not given), group mean, tumor
[9] = Velcade 0.5 mg/kg iv biwk, earlier day (day not given), individual mouse, tumor
[10] = Velcade 0.5 mg/kg iv biwk, group Mean, n 10
[11] = Velcade 0.5 mg/kg iv biwk, individual mouse
[12] = Velcade 0.5 mg/kg iv biwk, later day (day not given), group mean, tumor
[13] = Velcade 0.5 mg/kg iv biwk, later day (day not given), individual mouse, tumor

In the case of `CC(=O)O[C@@]12CO[C@@H]1C[C@H](O)[C@@]1(C)C(=O)[C@H](O)C3=C(C)[C@@H](OC(=O)[C@H](O)[C@@H](NC(=O)OC(C)(C)C)c4ccccc4)C[C@@](O)([C@@H](OC(=O)c4ccccc4)[C@H]21)C3(C)C` [Docetaxel], the “grade 4 neutropenia (<500 cells/mm^3), patients” value ([1]; 60 mg/m^2) is given as 75%, the “grade 4 neutropenia (<500 cells/mm^3), patients” value ([1]; 100 mg/m^2) is given as 85% and the “neutropenia (<2,000 neutrophils/mm3), occurrence” value ([1]; 60-100 mg/m^2) is given as “virtually all patients”. The “incidence of elevated creatinine (primarily grade 1/2)” value [2] was 5%.

In the case of `CC(C)C[C@H](NC(=O)[C@H](Cc1ccccc1)NC(=O)c1cnccn1)B(O)O` [Velcade®, Bortezomib, reference compound], the “efficacy (tumor growth), in words” value [3] is reported as “moderate but not statistically significant efficacy; also recorded: moderate and not statistically significant effect”, the volume ([3]; Velcade 0.5 mg/kg iv biwk, Day 48, group mean) is reported as 749.8 and the volume [3, 4] is reported as 520 and 868 and 757 and 647 and 687 and 470 and 1151 and 789. The Δ volume [3, 4] was 401.6 and 745.2 and 624.2 and 508.9 and 919.1 and 403.8 and 310.7 and 988.8 and 625.7, the volume [3, 5] was 1027.5 and the Δ volume [3, 5] was 884.2. The volume [3, 6] was 767 and 1043 and 1313 and 774 and 1432 and 917 and 1635 and 1195, the Δ volume [3, 6] was 648.2 and 920.6 and 1179.9 and 636.4 and 1291.7 and 474.1 and 768.2 and 418.7 and 1473.4 and 1031.3 and the “% TGI day 51” value [3, 7] was 28%. The “No. of CR” value [3, 7] was 0, the “No. of PR” value [3, 7] was 0 and the “No. of TRD” value [3, 7] was 0. For the same compound, the “No. og nTRD” value [3, 7] was 0, the “Δ mean tumor volume, (mean ± se)” value [3, 7] was 884 ± 356 and the volume [3, 8] was 1366.1. The Δ volume [3, 8] was 1224.9, the volume [3, 9] was 1019 and 1659 and 1885 and 779 and 2196 and 721 and 1500 and 885 and 1651 and the Δ volume [3, 9] was 900.3 and 1536.1 and 1752.5 and 640.9 and 2055.5 and 1351.3 and 724.9 and 1487.1. For the same compound, the “Day 20 volume” value [3, 10] was 143.2, the “Day 27 volume” value [3, 10] was 213.1 and the “Day 34 volume” value [3, 10] was 251.6. The “Day 41 volume” value [3, 10] was 422.8, the “Day 27 Δ volume” value [3, 10] was 69.9 and the “Day 34 Δ volume” value [3, 10] was 108.3. The “Day 41 Δ volume” value [3, 10] was 279.5, the “Day 45 Δ volume” value [3, 10] was 431.8 and the “Day 20 volume” value [3, 11] was 133 and 138 and 141 and 145 and 149 and 160 and 162 and 164. The “Day 27 volume” value [3, 11] was 225 (2×) and 260 and 235 and 253 and 206 and 231 and 149 and 185 and 162, the “Day 34 volume” value [3, 11] was 185 and 232 and 255 and 286 and 266 and 285 and 272 and 162 and 343 and 230 and the “Day 41 volume” value [3, 11] was 289 and 481 and 501 and 387 and 491 and 443 and 475 and 269 and 528 and 384. For the same compound, the “Day 45 volume” value [3, 11] was 430 and 667 and 507 and 733 and 495 and 663 and 351 and 744, the “Day 27 Δ volume” value [3, 11] was 137.0 and 102.2 and 115.3 and 65.3 and 85.8 and −0.6 and 25.6 and 63.7 and −2.2 and the “Day 34 Δ volume” value [3, 11] was 66.0 and 109.0 and 148.3 and 140.0 and 2.9 and 181.4 and 65.9. For the same compound, the “Day 41 Δ volume” value [3, 11] was 170.3 and 358.8 and 368.2 and 249.1 and 349.9 and 297.3 and 325.8 and 109.0 and 366.6 and 200.2, the “Day 45 Δ volume” value [3, 11] was 311.5 and 488.4 and 368.7 and 350.1 and 514.1 and 191.8 and 374.8 and the volume [3, 12] was 1236.8. For the same compound, the Δ volume [3, 12] was 1096.4, the volume [3, 13] was 1484 and 881 and 1166 and 1417 and the Δ volume [3, 13] was 1365.3 and 742.6 and 1020.7 and 1257.1. The “efficacy (tumor growth), in words” value ([3]; listed as Velcade) was “moderate”.
